Data as given in article PMC3635668 (Analytical chemistry, 2013).
Like-named read-outs stand apart in the source and are kept apart here. Non-standard residues stand in square brackets, D forms with d. No end group written: not given here. Sta = CC(C)C[C@H](N)[C@@H](O)CC(=O)O

Tests used:
BACE1 [1] = biological target: BACE1 (Homo sapiens, UniProt P56817); test: SPR antibody-amplified BACE1 cleavage inhibition assay, immobilized APP; assay type: biochemical; details: for BACE1 inhibition, two-channel screening (in words): 30 nM compound 1 (CH1) or 2 μM compound 2 (CH2), Figure 2B
BACE1 [2] = details: read-out: IC50 (MS); determined by MS; cited from earlier work
BACE1 [3] = details: read-out: IC50 (ELISA); measured from ELISA; cited from earlier work
[4] = 10 nM BACE1, SA-coated PEG chip

Sequence of BACE1 (Homo sapiens, UniProt P56817) (P56817 46-501): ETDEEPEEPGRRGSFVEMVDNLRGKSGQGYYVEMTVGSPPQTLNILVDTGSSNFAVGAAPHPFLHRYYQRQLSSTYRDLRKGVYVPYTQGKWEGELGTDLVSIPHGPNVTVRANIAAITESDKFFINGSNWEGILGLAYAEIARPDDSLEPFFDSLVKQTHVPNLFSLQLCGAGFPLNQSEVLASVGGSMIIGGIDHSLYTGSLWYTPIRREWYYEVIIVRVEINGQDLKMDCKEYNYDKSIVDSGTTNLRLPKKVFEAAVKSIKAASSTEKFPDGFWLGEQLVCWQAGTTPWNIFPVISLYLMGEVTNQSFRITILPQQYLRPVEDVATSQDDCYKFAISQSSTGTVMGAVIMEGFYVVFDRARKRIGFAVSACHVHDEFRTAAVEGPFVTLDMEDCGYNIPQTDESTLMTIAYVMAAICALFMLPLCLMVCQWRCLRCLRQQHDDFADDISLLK

Substance | BACE1 inhibition, two-channel screening (in words) (BACE1 [1]; [4]) | BACE1 inhibition (in words) (BACE1 [1]; 2 μM compound 2, 10 nM BACE1, Ni-NTA chip, Figure 4 cycle 4) | IC50 (BACE1 [2]) [µM] | relative potency compound 1 vs compound 2 (in words) (BACE1 [1]; 30 nM compound 1 vs 2 μM compound 2, Figure 2B) | BACE1 inhibition (in words) (BACE1 [1]; 40 nM compound, 10 nM BACE1, SA-coated PEG chip, Figure 2A curve c) | IC50 (BACE1 [3]) [µM]
Ph-LL-4,5-dehydro-L-CHO [Compound 2] | exhibited inhibition of the BACE1 activity | partially inhibits BACE1 | 3 |  |  | 
KTEEISEVN-Sta-VAEF (KTEEISEVN[Sta]VAEF) [Compound 1] | exhibited inhibition of the BACE1 activity |  |  | much more potent inhibitor | insufficient to completely halt the peptide cleavage by BACE1 | 0.03
